# Counter-ions that a name gives are not always drawn.
# Assays:
# [1] = test system: MDA-MB-231; assay: IC20 of E7389 for the cell line tested (MDA-MB-231); type: cell-based; conditions: Homo sapiens
# Source text: Transfection conditions for human breast cancer cell lines MDA-MB-231 (ATCC Catalog No. HTB26™) and BT-549 (ATCC Catalog No. HTB122™) were optimized using transfection reagent DharmaFect 1 from Dharmacon. The MDA-MB-231 and BT-549 cell lines have been reported to be Estrogen Receptor (ER) negative, Progesterone Receptor (PR) negative and HER-2 negative (triple negative). As a non-targeting negative control we used Silencer Negative Control #1 siRNA from Applied Biosystems. The siGENOME TOX (siTOX) Transfection Control (Dharmacon), an RNA duplex designed to induce cell death, was used as a positive control for cell proliferation assays. A reverse transfection procedure in which siRNA was first mixed with transfection reagent and then cells were added to the well, was used in all experiments. Cell viability was compared in cells treated with medium, negative control siRNA and siTOX reagent combined with different amount of DharmaFect 1. […]
# The whole human genome siRNA library was purchased from Dharmacon. […] Cell viability was determined at 96 hours after transfection by CellTiter-Glo luminescent assay from Promega. […] Plates were mixed for 2 minutes on a horizontal shaker, incubated for 10 minutes and read on an EnVision® multilabel plate reader from PerkinElmer.
# [2] = test system: BT-549 cells; assay: IC20 of E7389 for BT-549 cells; type: cell-based; conditions: Homo sapiens
smiles,measurement,setting,value
"C=C1C[C@@H]2CC[C@@]34C[C@H]5O[C@H]6C(O3)[C@H]3OC(CC[C@@H]3O[C@H]6[C@H]5O4)CC(=O)C[C@@H]3[C@@H](OC)[C@@H](C[C@H](O)CN)O[C@H]3CC3O[C@@H](CCC1O2)C[C@@H](C)C3=C [E7389, 11,15:18,21:24,28-Triepoxy-7,9-ethano-12,15-methano-9H,15H-furo[3,2-i]furo[2′,3′:5,6]pyrano[4,3-b][1,4]dioxacyclopentacosin-5(4H)-one, 2-[(2S)-3-amino-2-hydroxypropyl]hexacosahydro-3-methoxy-26-methyl-20,27-bis(methylene)-, (2R,3R,3aS,7R,8aS,9S,10aR,11S,12R,13aR,13bS,15S,18S,21S,24S,26R,28R,29aS)-methanesulfonate (salt)]",IC20,[1],750 pM
same,IC20,[2],250 pM
